Measurements reported in patent US8389557B2, “Triazole derivatives useful as Axl inhibitors” (Rigel Pharmaceuticals, Inc., priority 2005, dated 2013).

Biological target: T1, Axl (Homo sapiens, UniProt P30530)
T1 construct: endogenous in cells; host or cells: HeLa cells
T1 sequence (P30530 26-894): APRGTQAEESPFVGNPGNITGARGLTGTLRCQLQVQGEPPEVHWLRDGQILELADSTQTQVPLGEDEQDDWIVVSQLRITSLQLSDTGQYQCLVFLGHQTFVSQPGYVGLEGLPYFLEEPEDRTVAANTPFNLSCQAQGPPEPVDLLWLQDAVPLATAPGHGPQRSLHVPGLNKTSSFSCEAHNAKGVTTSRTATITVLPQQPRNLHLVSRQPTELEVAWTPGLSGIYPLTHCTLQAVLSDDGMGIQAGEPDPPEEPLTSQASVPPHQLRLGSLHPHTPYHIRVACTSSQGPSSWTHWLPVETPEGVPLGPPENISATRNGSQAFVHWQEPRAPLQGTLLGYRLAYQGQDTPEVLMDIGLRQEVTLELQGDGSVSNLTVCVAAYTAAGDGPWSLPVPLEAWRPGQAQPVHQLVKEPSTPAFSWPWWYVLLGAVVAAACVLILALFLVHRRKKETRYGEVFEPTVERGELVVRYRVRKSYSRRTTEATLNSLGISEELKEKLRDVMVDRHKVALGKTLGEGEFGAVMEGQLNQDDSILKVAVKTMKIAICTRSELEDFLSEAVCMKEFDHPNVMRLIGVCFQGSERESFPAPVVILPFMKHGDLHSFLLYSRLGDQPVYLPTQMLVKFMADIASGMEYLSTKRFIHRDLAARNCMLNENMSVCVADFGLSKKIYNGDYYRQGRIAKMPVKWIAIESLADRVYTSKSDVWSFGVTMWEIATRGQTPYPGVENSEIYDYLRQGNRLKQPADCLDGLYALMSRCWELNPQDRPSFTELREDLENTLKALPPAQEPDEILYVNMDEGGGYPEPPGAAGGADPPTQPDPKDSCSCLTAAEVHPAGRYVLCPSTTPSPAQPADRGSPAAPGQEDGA
Assay: Phospho-Akt in-cell Western assay (inhibition of Axl activity)
Type: cell-based
Summary of the method: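 HeLa cells on poly-L-lysine, starved 24 h in 0.5% FCS DMEM with Axl/Fc 500 ng/mL, pre-treated with compound 1 h at 37° C. Axl stimulated 5 min by anti-Axl/anti-mouse antibody cross-linking. Fixed cells probed with anti-phospho-Akt and HRP secondary, chemiluminescence read.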

[1] = inhibition of Axl activity, phospho-Akt in-cell Western assay, Table 1
[2] = Table 2, Hela cells, Axl antibody cross-linking stimulation, phospho-Akt chemiluminescence
[3] = inhibition of Axl activity, Table 1
[4] = Table 8, Hela cells, Axl antibody cross-linking stimulation, phospho-Akt chemiluminescence
[5] = Table 3, Hela cells, Axl antibody cross-linking stimulation, phospho-Akt chemiluminescence
[6] = Table 7, Hela cells, Axl antibody cross-linking stimulation, phospho-Akt chemiluminescence

Q: `Nc1nc(Nc2ccc(OCCN3CCCC3)cc2)nn1C(=O)c1cccc(-c2cccs2)c1` [compound 313, 5-amino-1-(3-(thien-2-yl)phenyl)carbonyl-3-[4-[2-(pyrrolidin-1-yl)ethoxy]phenylamino]-1H-1,2,4-triazole] was tested. Which IC50 [1] did it give?
A: The IC50 was less than 1 µM.

Q: `Nc1nc(Nc2ccc3c(c2)OCCO3)n(C(=O)c2ccccc2)n1` [compound 92, 3-amino-5-(1,4-benzodioxan-6-yl)amino-1-phenylcarbonyl-1H-1,2,4-triazole] was tested. Which IC50 [2] did it give?
A: Its IC50 is 1 to 10 µM.

Q: Which IC50 [3] does the source give for `Nc1nc(Nc2ccc3c(c2)OCCO3)nn1C(=O)c1cccc(OCC(F)(F)F)c1` [compound 228, 5-amino-3-(1,4-benzodioxan-6-yl)amino-1-(3-(2,2,2-trifluoroethoxy)phenyl)carbonyl-1H-1,2,4-triazole] here?
A: Its IC50 is greater than 20 µM.

Q: How did the IC50 [3] turn out when `Nc1nc(Nc2ccc3c(c2)OCCO3)nn1C(=O)c1ccc(OCC(F)(F)F)cc1` [compound 230, 5-amino-3-(1,4-benzodioxan-6-yl)amino-1-(4-(2,2,2-trifluoroethoxy)phenyl)carbonyl-1H-1,2,4-triazole] was run?
A: Its IC50 is greater than 20 µM.

Q: How did the IC50 (Table 5, Hela cells, Axl antibody cross-linking stimulation, phospho-Akt chemiluminescence) turn out when `Cc1cccc(C(=O)n2nc(Nc3ccc4oc(C(=O)NCCO)cc4c3)nc2N)c1` [compound 208, 5-amino-3-[2-[2-hydroxyethylaminocarbonyl]benzofuran-5-yl]amino-1-(3-methylphenyl)carbonyl-1H-1,2,4-triazole] was run?
A: Its IC50 is 1 to 10 µM.

Q: Which IC50 [4] does the source give for `Cc1ccc(NC(=O)n2nc(N)nc2Nc2ccc(OCCN3CCCCC3)cc2)cc1` [compound 183, 3-amino-N-(4-(methyl)phenyl)-5-[4-[2-(piperidin-1-yl)ethoxy]phenylamino]-1H-1,2,4-triazole-1-carboxamide] here?
A: Its IC50 is 1 to 10 µM.

Q: With `CS(=O)(=O)N1CCC(Nc2nc(N)n(C(=O)c3ccc4c(c3)OCCO4)n2)CC1` [compound 397, 5-amino-1-(1,4-benzodioxan-6-yl)carbonyl-3-(1-methylsulfonylpiperidin-4-yl)amino-1H-1,2,4-triazole] as the molecule, how does the IC50 (Table 9, Hela cells, Axl antibody cross-linking stimulation, phospho-Akt chemiluminescence) read?
A: The IC50 was greater than 20 µM.

Q: `Cc1cccc(C(=O)n2nc(N)nc2Nc2cccc(OCC(=O)NC3CCCCC3)c2)c1` [compound 164, 3-amino-5-[3-[cyclohexylaminocarbonylmethoxy]phenylamino]-1-(3-(methyl)phenyl)carbonyl-1H-1,2,4-triazole] was tested. Which IC50 [2] did it give?
A: The IC50 was greater than 20 µM.

Q: How did the IC50 [4] turn out when `CCCCOc1ccc(NC(=O)n2nc(N)nc2Nc2ccc(OCCN3CCCCC3)cc2)cc1` [compound 182, 3-amino-N-(4-(butoxy)phenyl)-5-[4-[2-(piperidin-1-yl)ethoxy]phenylamino]-1H-1,2,4-triazole-1-carboxamide] was run?
A: The IC50 was greater than 20 µM.

Q: How did the IC50 [3] turn out when `CC(C)c1ccc(C(=O)n2nc(Nc3ccc(N4CCOCC4)cc3)nc2N)cc1` [compound 52, 5-amino-1-(4-(iso-propyl)phenyl)carbonyl-3-(4-(morpholin-4-yl)phenylamino]-1H-1,2,4-triazole] was run?
A: The IC50 was less than 1 µM.

Q: `CC(C)(C)Oc1cccc(C(=O)n2nc(Nc3ccc(OCCN4CCCC4)cc3)nc2N)c1` [compound #18, 5-Amino-3-[4-[2-(pyrrolidin-1-yl)ethoxy]phenylamino]-1-(3-(tert-butoxy)phenyl)carbonyl-1H-1,2,4-triazole] was tested. Which IC50 [1] did it give?
A: Its IC50 is less than 1 µM.

Q: Which IC50 [1] does the source give for `Nc1nc(Nc2ccc(OCCN3CCCC3)cc2)nn1C(=O)c1ccc(N2CCOCC2)cc1` [compound 382, 5-amino-1-(4-(morpholin-4-yl)phenyl)carbonyl-3-[4-[2-(pyrrolidin-1-yl)ethoxy]phenylamino]-1H-1,2,4-triazole] here?
A: The IC50 was less than 1 µM.

Q: With `Nc1nc(Nc2ccc(OCCN3CCCC3)cc2)nn1C(=O)c1cc2ccccc2s1` [compound 367, 5-amino-1-(benzo[b]thiophen-2-yl)carbonyl-3-[4-[2-(pyrrolidin-1-yl)ethoxy]phenylamino]-1H-1,2,4-triazole] as the molecule, how does the IC50 [5] read?
A: The IC50 was less than 1 µM.

Q: How did the IC50 [3] turn out when `COc1cccc(Nc2nc(N)n(C(=O)c3ccc(OC(C)C)cc3)n2)c1` [compound 121, 5-amino-1-(4-(iso-propoxy)phenyl)carbonyl-3-[3-(methoxy)phenylamino]-1H-1,2,4-triazole] was run?
A: The IC50 was 1 to 10 µM.

Q: Which IC50 [2] does the source give for `CC(C)(C)Oc1ccc(C(=O)n2nc(N)nc2Nc2ccc(N3CCOCC3)cc2)cc1` [compound 58, 3-amino-5-(4-(morpholin-4-yl)phenylamino)-1-(4-(tert-butoxy)phenyl)carbonyl-1H-1,2,4-triazole] here?
A: The IC50 was greater than 20 µM.

Q: For `COc1c(F)cc(C(=O)n2nc(Nc3ccc(OCCN4CCCC4)cc3)nc2N)cc1F` [compound 390, 5-amino-1-(3,5-difluoro-4-methoxyphenyl)carbonyl-3-[4-[2-(pyrrolidin-1-yl)ethoxy]phenylamino]-1H-1,2,4-triazole], which IC50 [1] is on record?
A: Its IC50 is less than 1 µM.

Q: Which IC50 [5] does the source give for `Nc1nc(Nc2ccc(OCCN3CC[C@H](F)C3)cc2)nn1C(=O)c1ccc2cc[nH]c2c1` [compound 388, 5-amino-1-(1H-indol-6-yl)carbonyl-3-[4-[2-((S)-3-fluoropyrrolidin-1-yl)ethoxy]phenylamino]-1H-1,2,4-triazole] here?
A: Its IC50 is less than 1 µM.

Q: How did the IC50 [1] turn out when `CSc1ccc(C(=O)n2nc(Nc3ccc(OCCN4CCCC4)cc3)nc2N)cc1` [compound 287, 5-amino-1-(4-(methylthio)phenyl)carbonyl-3-[4-[2-(pyrrolidin-1-yl)ethoxy]phenylamino]-1H-1,2,4-triazole] was run?
A: Its IC50 is less than 1 µM.

Q: With `Cc1cccc(C(=O)n2nc(Nc3cccc(OCC(=O)NCC4COC(C)(C)O4)c3)nc2N)c1` (stereo not shown) [compound 148] as the molecule, how does the IC50 [3] read?
A: The IC50 was 1 to 10 µM.

Q: Which IC50 [3] does the source give for `CC(C)Oc1ccc(C(=O)n2nc(Nc3ccc(OCCC4OCCO4)cc3)nc2N)cc1` [compound 158, 5-amino-3-[4-[2-(1,3-dioxolan-2-yl)ethoxy]phenylamino]-1-(4-(iso-propoxy)phenyl)carbonyl-1H-1,2,4-triazole] here?
A: The IC50 was 1 to 10 µM.

Q: `CC(C)(C)Oc1ccc(C(=O)n2nc(Nc3ccccc3)nc2N)cc1` [compound 341, 5-amino-1-(4-(tert-butoxy)phenyl)carbonyl-3-(phenylamino)-1H-1,2,4-triazole] was tested. Which IC50 [1] did it give?
A: Its IC50 is 1 to 10 µM.

Q: How did the IC50 [6] turn out when `COc1ccc(Nc2nc(N)n(C(=O)Nc3ccc(Cl)cc3)n2)cc1` [compound 172, 5-amino-N-(4-chlorophenyl)-3-[4-(methoxy)phenylamino]-1H-1,2,4-triazole-1-carboxamide] was run?
A: Its IC50 is greater than 20 µM.

Q: `CC(C)(C)Oc1cccc(C(=O)n2nc(Nc3ccc(OCCn4ccnc4)cc3)nc2N)c1` [compound 371, 5-amino-1-(3-(tert-butoxy)phenyl)carbonyl-3-[4-[2-(imidazol-1-yl)ethoxy]phenylamino]-1H-1,2,4-triazole] was tested. Which IC50 [1] did it give?
A: Its IC50 is 1 to 10 µM.

Q: With `Cc1ccc(C(=O)n2nc(Nc3cccc(O)c3)nc2N)cc1` [(Ia-15), 5-amino-3-[3-(hydroxy)phenylamino]-1-(4-(methyl)phenyl)carbonyl-1H-1,2,4-triazole] as the molecule, how does the IC50 [3] read?
A: Its IC50 is 10 to 20 µM.

Q: For `Nc1nc(Nc2ccc3c(c2)OCCO3)nn1C(=O)c1ccc(OCCN2CCCCC2)cc1` [compound 226], which IC50 [3] is on record?
A: Its IC50 is 1 to 10 µM.

Q: Which IC50 [6] does the source give for `CC(C)(C)OC(=O)n1nc(Nc2ccc(N3CCCCC3)cc2)nc1N` [compound 201, 5-amino-3-[4-(piperidin-1-yl)phenylamino]-1-(tert-butoxycarbonyl)-1H-1,2,4-triazole] here?
A: Its IC50 is greater than 20 µM.

Q: For `Nc1nc(Nc2ccc(OCCN3CCCCC3)cc2)n(C(=O)NC2CCCC2)n1` [compound 190, 3-amino-N-cyclopentyl-5-[4-[2-(piperidin-1-yl)ethoxy]phenylamino]-1H-1,2,4-triazole-1-carboxamide], which IC50 [4] is on record?
A: The IC50 was greater than 20 µM.

Q: Which IC50 [5] does the source give for `Nc1nc(Nc2ccc(OCCN3CCCC3)cc2)nn1C(=O)c1ccc2nc[nH]c2c1` [compound #25, 5-Amino-1-(benzimidazol-6-yl)carbonyl-3-[4-[2-(pyrrolidin-1-yl)ethoxy]phenylamino]-1H-1,2,4-triazole] here?
A: The IC50 was 1 to 10 µM.

Q: `CC(C)(C)C(=O)Nc1ccc(C(=O)n2nc(Nc3ccc(OCCN4CCCC4)cc3)nc2N)cc1` [compound 290, 5-amino-1-(4-(tert-butylcarbonylamino)phenyl)carbonyl-3-[4-[2-(pyrrolidin-1-yl)ethoxy]phenylamino]-1H-1,2,4-triazole] was tested. Which IC50 [1] did it give?
A: The IC50 was 10 to 20 µM.

Q: For `Cc1cccc(C(=O)n2nc(Nc3cccc(OCC(=O)NCC(O)CO)c3)nc2N)c1` (stereo not shown) [compound 153, 5-amino-3-[3-(N-(2,3-dihydroxypropyl)amino)carbonylmethoxy]-phenylamino-1-(3-(methyl)phenyl)carbonyl-1H-1,2,4-triazole], which IC50 [3] is on record?
A: The IC50 was 1 to 10 µM.

Q: How did the IC50 [5] turn out when `Nc1nc(Nc2ccc(OCCN3CCCC3)cc2)nn1C(=O)c1ccc2ncsc2c1` [compound 271, 5-amino-1-(benzo[d]thiazol-6-yl)carbonyl-3-[4-[2-(pyrrolidin-1-yl)ethoxy]phenylamino]-1H-1,2,4-triazole] was run?
A: The IC50 was 1 to 10 µM.
